{"source": "patent US20080004344A1", "about": "“Novel Salts of Fumaric Acid Monoalkylesters and Their Pharmaceutical Use” (ADITECH PHARMA AB, priority 2004, published 2008)", "key": {"[1]": {"assay": "pH-value of the solution on dissolving in water", "format": "physicochemical", "settings": "dissolved in water", "method": "When strontium monomethyl fumarate is dissolved in water, the pH-value of the solution raises to alkaline values (pH˜9-10), owing to production of hydroxyl ions: Sr(C5H5O4)2+2H2O→Sr^2+(aq)+2C5H6O4(aq)+2OH^−(aq) (2)"}, "IL-8": {"tested_on": "IL-8", "assay": "Monocyte stimulation cultures of PBMC (LPS or unstimulated), IL-8 ELISA"}, "IL-10": {"tested_on": "IL-10", "assay": "Monocyte stimulation cultures of PBMC (LPS or unstimulated), IL-10 ELISA"}, "[2]": {"settings": "LPS 1 ng/ml, 10 μM MMF, Donor 1"}, "[3]": {"settings": "LPS 1 ng/ml, 10 μM MMF, Donor 2"}, "[4]": {"settings": "LPS 1 ng/ml, 30 μM MMF, Donor 1"}, "[5]": {"settings": "LPS 1 ng/ml, 30 μM MMF, Donor 2"}, "[6]": {"settings": "LPS 1 ng/ml, 100 μM MMF, Donor 1"}, "[7]": {"settings": "LPS 1 ng/ml, 100 μM MMF, Donor 2"}, "[8]": {"settings": "LPS 1 ng/ml, 300 μM MMF, Donor 1"}, "[9]": {"settings": "LPS 1 ng/ml, 300 μM MMF, Donor 2"}, "[10]": {"settings": "no LPS printed for these rows, 1 μM MMF, Donor 1"}, "[11]": {"settings": "no LPS printed for these rows, 1 μM MMF, Donor 2"}, "[12]": {"settings": "no LPS printed for these rows, 3 μM MMF, Donor 1"}, "[13]": {"settings": "no LPS printed for these rows, 3 μM MMF, Donor 2"}, "[14]": {"settings": "no LPS printed for these rows, 10 μM MMF, Donor 1"}, "[15]": {"settings": "no LPS printed for these rows, 10 μM MMF, Donor 2"}, "[16]": {"settings": "no LPS printed for these rows, 30 μM MMF, Donor 1"}, "[17]": {"settings": "no LPS printed for these rows, 30 μM MMF, Donor 2"}, "[18]": {"settings": "no LPS printed for these rows, 100 μM MMF, Donor 1"}, "[19]": {"settings": "no LPS printed for these rows, 100 μM MMF, Donor 2"}, "[20]": {"settings": "no LPS printed for these rows, 300 μM MMF, Donor 1"}, "[21]": {"settings": "no LPS printed for these rows, 300 μM MMF, Donor 2"}, "[22]": {"settings": "no LPS printed for these rows, 1 mM MMF, Donor 1"}, "[23]": {"settings": "no LPS printed for these rows, 1 mM MMF, Donor 2"}, "[24]": {"settings": "no LPS printed for these rows, 3 mM MMF, Donor 1"}, "[25]": {"settings": "no LPS printed for these rows, 3 mM MMF, Donor 2"}}}
{"substance": "di-strontium-tetrakis-(mono methyl fumarate)-tetra hydrate [strontium MMF]", "values": [{"measurement": "pH-value of the solution", "setting": "[1]", "value": "9-10"}, {"measurement": "IL-8 Conc", "setting": "IL-8; LPS 1 ng/ml, 1 μM MMF, Donor 1", "value": 35264, "unit": "pg/mL"}, {"measurement": "IL-8 Conc", "setting": "IL-8; LPS 1 ng/ml, 1 μM MMF, Donor 2", "value": 25146, "unit": "pg/mL"}, {"measurement": "IL-8 Conc", "setting": "IL-8; LPS 1 ng/ml, 3 μM MMF, Donor 1", "value": 26255, "unit": "pg/mL"}, {"measurement": "IL-8 Conc", "setting": "IL-8; LPS 1 ng/ml, 3 μM MMF, Donor 2", "value": 24672, "unit": "pg/mL"}, {"measurement": "IL-8 Conc", "setting": "IL-8; [2]", "value": 1259306, "unit": "pg/mL"}, {"measurement": "IL-8 Conc", "setting": "IL-8; [3]", "value": 70691, "unit": "pg/mL"}, {"measurement": "IL-8 Conc", "setting": "IL-8; [4]", "value": 1369127, "unit": "pg/mL"}, {"measurement": "IL-8 Conc", "setting": "IL-8; [5]", "value": 1357587, "unit": "pg/mL"}, {"measurement": "IL-8 Conc", "setting": "IL-8; [6]", "value": 80524, "unit": "pg/mL"}, {"measurement": "IL-8 Conc", "setting": "IL-8; [7]", "value": 1285660, "unit": "pg/mL"}, {"measurement": "IL-8 Conc", "setting": "IL-8; [8]", "value": 7135, "unit": "pg/mL"}, {"measurement": "IL-8 Conc", "setting": "IL-8; [9]", "value": 31370, "unit": "pg/mL"}, {"measurement": "IL-8 Conc", "setting": "IL-8; LPS 1 ng/ml, 1 mM MMF, Donor 1", "value": 558, "unit": "pg/mL"}, {"measurement": "IL-8 Conc", "setting": "IL-8; LPS 1 ng/ml, 1 mM MMF, Donor 2", "value": 2825, "unit": "pg/mL"}, {"measurement": "IL-8 Conc", "setting": "IL-8; LPS 1 ng/ml, 3 mM MMF, Donor 1", "value": 86, "unit": "pg/mL"}, {"measurement": "IL-8 Conc", "setting": "IL-8; LPS 1 ng/ml, 3 mM MMF, Donor 2", "value": 424, "unit": "pg/mL"}, {"measurement": "effect on IL-8 secretion", "setting": "IL-8; LPS stimulated monocytes", "value": "did not induce a co-stimulation"}, {"measurement": "IL-8 Conc", "setting": "IL-8; [10]", "value": 138285, "unit": "pg/mL"}, {"measurement": "IL-8 Conc", "setting": "IL-8; [11]", "value": 241352, "unit": "pg/mL"}, {"measurement": "IL-8 Conc", "setting": "IL-8; [12]", "value": 219130, "unit": "pg/mL"}, {"measurement": "IL-8 Conc", "setting": "IL-8; [13]", "value": 349450, "unit": "pg/mL"}, {"measurement": "IL-8 Conc", "setting": "IL-8; [14]", "value": 249798, "unit": "pg/mL"}, {"measurement": "IL-8 Conc", "setting": "IL-8; [15]", "value": 446267, "unit": "pg/mL"}, {"measurement": "IL-8 Conc", "setting": "IL-8; [16]", "value": 179340, "unit": "pg/mL"}, {"measurement": "IL-8 Conc", "setting": "IL-8; [17]", "value": 315447, "unit": "pg/mL"}, {"measurement": "IL-8 Conc", "setting": "IL-8; [18]", "value": 60312, "unit": "pg/mL"}, {"measurement": "IL-8 Conc", "setting": "IL-8; [19]", "value": 153980, "unit": "pg/mL"}, {"measurement": "IL-8 Conc", "setting": "IL-8; [20]", "value": 12354, "unit": "pg/mL"}, {"measurement": "IL-8 Conc", "setting": "IL-8; [21]", "value": 31040, "unit": "pg/mL"}, {"measurement": "IL-8 Conc", "setting": "IL-8; [22]", "value": 1696, "unit": "pg/mL"}, {"measurement": "IL-8 Conc", "setting": "IL-8; [23]", "value": 5363, "unit": "pg/mL"}, {"measurement": "IL-8 Conc", "setting": "IL-8; [24]", "value": 176, "unit": "pg/mL"}, {"measurement": "IL-8 Conc", "setting": "IL-8; [25]", "value": 577, "unit": "pg/mL"}, {"measurement": "effect on IL-8 secretion", "setting": "IL-8; unstimulated monocytes", "value": "did induce an induction"}, {"measurement": "IL-10 Conc", "setting": "IL-10; LPS 1 ng/ml, 1 μM MMF, Donor 1", "value": 11, "unit": "pg/mL"}, {"measurement": "IL-10 Conc", "setting": "IL-10; LPS 1 ng/ml, 1 μM MMF, Donor 2", "value": 11, "unit": "pg/mL"}, {"measurement": "IL-10 Conc", "setting": "IL-10; LPS 1 ng/ml, 3 μM MMF, Donor 1", "value": 13, "unit": "pg/mL"}, {"measurement": "IL-10 Conc", "setting": "IL-10; LPS 1 ng/ml, 3 μM MMF, Donor 2", "value": 5, "unit": "pg/mL"}, {"measurement": "IL-10 Conc", "setting": "IL-10; [2]", "value": 106, "unit": "pg/mL"}, {"measurement": "IL-10 Conc", "setting": "IL-10; [3]", "value": 13, "unit": "pg/mL"}, {"measurement": "IL-10 Conc", "setting": "IL-10; [4]", "value": 62, "unit": "pg/mL"}, {"measurement": "IL-10 Conc", "setting": "IL-10; [5]", "value": 32, "unit": "pg/mL"}, {"measurement": "IL-10 Conc", "setting": "IL-10; [6]", "value": 7, "unit": "pg/mL"}, {"measurement": "IL-10 Conc", "setting": "IL-10; [7]", "value": 0, "unit": "pg/mL"}, {"measurement": "IL-10 Conc", "setting": "IL-10; [8]", "value": 0, "unit": "pg/mL"}, {"measurement": "IL-10 Conc", "setting": "IL-10; [9]", "value": 0, "unit": "pg/mL"}, {"measurement": "IL-10 Conc", "setting": "IL-10; LPS 1 ng/ml, 1 mM MMF, Donor 1", "value": 2, "unit": "pg/mL"}, {"measurement": "IL-10 Conc", "setting": "IL-10; LPS 1 ng/ml, 1 mM MMF, Donor 2", "value": 0, "unit": "pg/mL"}, {"measurement": "IL-10 Conc", "setting": "IL-10; LPS 1 ng/ml, 3 mM MMF, Donor 1", "value": 1, "unit": "pg/mL"}, {"measurement": "IL-10 Conc", "setting": "IL-10; LPS 1 ng/ml, 3 mM MMF, Donor 2", "value": 0, "unit": "pg/mL"}, {"measurement": "effect on IL-10 secretion", "setting": "IL-10; LPS-stimulated monocytes", "value": "co-induced"}, {"measurement": "effect on IL-10 secretion", "setting": "IL-10; as single stimulant (unstimulated monocytes)", "value": "induced"}, {"measurement": "IL-10 Conc", "setting": "IL-10; [10]", "value": 775, "unit": "pg/mL"}, {"measurement": "IL-10 Conc", "setting": "IL-10; [11]", "value": 1125, "unit": "pg/mL"}, {"measurement": "IL-10 Conc", "setting": "IL-10; [12]", "value": 886, "unit": "pg/mL"}, {"measurement": "IL-10 Conc", "setting": "IL-10; [13]", "value": 1385, "unit": "pg/mL"}, {"measurement": "IL-10 Conc", "setting": "IL-10; [14]", "value": 1026, "unit": "pg/mL"}, {"measurement": "IL-10 Conc", "setting": "IL-10; [15]", "value": 2035, "unit": "pg/mL"}, {"measurement": "IL-10 Conc", "setting": "IL-10; [16]", "value": 351, "unit": "pg/mL"}, {"measurement": "IL-10 Conc", "setting": "IL-10; [17]", "value": 800, "unit": "pg/mL"}, {"measurement": "IL-10 Conc", "setting": "IL-10; [18]", "value": 7, "unit": "pg/mL"}, {"measurement": "IL-10 Conc", "setting": "IL-10; [19]", "value": 40, "unit": "pg/mL"}, {"measurement": "IL-10 Conc", "setting": "IL-10; [20]", "value": 0, "unit": "pg/mL"}, {"measurement": "IL-10 Conc", "setting": "IL-10; [21]", "value": 0, "unit": "pg/mL"}, {"measurement": "IL-10 Conc", "setting": "IL-10; [22]", "value": 0, "unit": "pg/mL"}, {"measurement": "IL-10 Conc", "setting": "IL-10; [23]", "value": 0, "unit": "pg/mL"}, {"measurement": "IL-10 Conc", "setting": "IL-10; [24]", "value": 0, "unit": "pg/mL"}, {"measurement": "IL-10 Conc", "setting": "IL-10; [25]", "value": 0, "unit": "pg/mL"}]}
